Columns and labels:
[1] = molecular target: T1, Cbl-b (Homo sapiens, UniProt Q13191); test: Cbl-b inhibition assay (Cbl-b activity assay, FRET, Biological Example 1; 100 mM NaCl, 60 nM Src kinase); format: biochemical; details: upper bound stated in text lists; read-out: IC50 values in the Cbl-b inhibition assay of Biological Example 1
Procedure, shortened: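 Binding-based Cbl-b activity assay. Src-phosphorylated, N-terminally biotin-Avi-tagged Cbl-b recruits labelled UbcH5B-Ub, and proximity to streptavidin-terbium yields FRET.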

[2] = system: T-cell; test: IL-2 secretion from T-cells co-stimulated with anti-CD3 and anti-CD28 antibody (Biological Example 2); format: cell-based, human; details: Homo sapiens, T-cell, read-out: IL-2 secretion Anti-CD3/Anti-CD28 stimulation; for fold induction at 0.3 µM: 0.3 μM Cbl-b inhibitor; for fold induction at 1 µM: 1 μM Cbl-b inhibitor; for fold induction at 4 µM: 4 μM Cbl-b inhibitor
Source text: (§1) Methods for experimentally determining increased T-cell activation, increased T-cell proliferation, decreased T-cell exhaustion, and/or decreased T-cell tolerance are well known in the art.
(§2) Modulation of activity of an immune cell, such as a T-cell, a B cell or a NK cell can be measured by determining a baseline value for a parameter of interest (e.g., cytokine secretion). […] A reference value then is obtained for T-cell activation after contacting or administering said Cbl-b inhibitor. The reference value is compared to the baseline value in order to determine the amount of T-cell activation due to contact or administration of the Cbl-b inhibitor or composition thereof. […] Immune cell activation can be assessed by measuring biological markers of activation such as increased cytokine secretion, increased cell surface expression of activation markers (e.g., cell surface markers), or increased phosphorylation of proteins in a downstream signaling pathway. The fold over baseline value that indicates immune cell activation can be determined for the parameter being tested and the conditions under which the immune cell were treated. For example, for measuring T-cell activation, a baseline value can be obtained from T-cells stimulated with anti-CD3 antibody in combination with anti-CD28 antibody, wherein the cells are not incubated with a Cbl-b inhibitor. […] A positive response for immune cell activation can then be determined by the obtained reference value. […]

[3] = system: T-cell; test: IL-2 secretion from T-cells stimulated with anti-CD3 antibody alone (Biological Example 2); format: cell-based, human; details: T-cell, read-out: IL-2 secretion Anti-CD3 stimulation; for fold induction at 1 µM: 1 μM Cbl-b inhibitor; for fold induction at 8 µM: 8 μM Cbl-b inhibitor
Source text: as §1
(§3) Modulation of activity of an immune cell, such as a T-cell, a B cell or a NK cell can be measured by determining a baseline value for a parameter of interest (e.g., cytokine secretion). […] A reference value then is obtained for T-cell activation after contacting or administering said Cbl-b inhibitor. The reference value is compared to the baseline value in order to determine the amount of T-cell activation due to contact or administration of the Cbl-b inhibitor or composition thereof. […] Immune cell activation can be assessed by measuring biological markers of activation such as increased cytokine secretion, increased cell surface expression of activation markers (e.g., cell surface markers), or increased phosphorylation of proteins in a downstream signaling pathway. The fold over baseline value that indicates immune cell activation can be determined for the parameter being tested and the conditions under which the immune cell were treated. For example, for measuring T-cell activation, a baseline value can be obtained from T-cells stimulated with anti-CD3 antibody in combination with anti-CD28 antibody, wherein the cells are not incubated with a Cbl-b inhibitor. […] A positive response for immune cell activation can then be determined by the obtained reference value.
(§4) In some embodiments, a baseline value can be obtained from T-cells stimulated with anti-CD3 antibody alone, wherein the cells are not incubated with a Cbl-b inhibitor. In some embodiments, a positive response for T-cell activation as measured by cytokine secretion (e.g., IL-2 secretion) by T-cells stimulated with anti-CD3 antibody alone in the presence of a Cbl-b inhibitor is at least 0.1-fold over the baseline value for cytokine secretion (e.g., IL-2 secretion) obtained from T-cells stimulated with anti-CD3 antibody alone in the absence of a Cbl-b inhibitor. In some embodiments, a positive response for T-cell activation as measured by surface marker expression (e.g., CD25 surface marker staining) by T-cells stimulated with anti-CD3 antibody alone in the presence of a Cbl-b inhibitor is at least 0.6-fold over the baseline value for surface marker expression (e.g., CD25 surface marker staining) obtained from T-cells stimulated with anti-CD3 antibody alone in the absence of a Cbl-b inhibitor.

[4] = system: T-cell; test: CD25 cell surface staining on T-cells co-stimulated with anti-CD3 and anti-CD28 antibody (Biological Example 2); format: cell-based, human; details: Homo sapiens, T-cell, read-out: CD25 staining Anti-CD3/Anti-CD28 stimulation; for fold induction at 0.3 µM: 0.3 μM Cbl-b inhibitor; for fold induction at 1 µM: 1 μM Cbl-b inhibitor; for fold induction at 4 µM: 4 μM Cbl-b inhibitor
Source text: as §1, §2

[5] = system: T-cell; test: CD25 cell surface staining on T-cells stimulated with anti-CD3 antibody alone (Biological Example 2); format: cell-based, human; details: T-cell, read-out: CD25 staining Anti-CD3 stimulation; for fold induction at 1 µM: 1 μM Cbl-b inhibitor; for fold induction at 8 µM: 8 μM Cbl-b inhibitor
Source text: as §1, §3, §4

[6] = molecular target: T1, Cbl-b; test: Cbl-b activity assay (Cbl-b inhibition assay), TR-FRET of Cbl-b interaction with UbcH5B-Ub; format: biochemical; details: assay buffer with 100 mM NaCl, 60 nM Src kinase; read-out: Cbl-b activity IC50
Procedure, shortened: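 UbcH5B (C85K) conjugated to N-terminally Bodipy-Fluorescein-labeled ubiquitin served as the fluorescent partner. After compound preincubation, Src kinase (60 nM) with 1 mM ATP and 5 mM MgCl2 (final) was added for 1.5 h, followed by a further 1 h incubation. Some values were obtained with 50 mM NaCl and 30 nM Src.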

[7] = fold change over baseline, primary human total T-cells
[8] = fold change over baseline (anti-CD3/anti-CD28 stimulated T-cells without inhibitor)
[9] = Homo sapiens, fold change over baseline (anti-CD3/anti-CD28 stimulated T-cells without inhibitor)

T1 sequence (Q13191 36-427): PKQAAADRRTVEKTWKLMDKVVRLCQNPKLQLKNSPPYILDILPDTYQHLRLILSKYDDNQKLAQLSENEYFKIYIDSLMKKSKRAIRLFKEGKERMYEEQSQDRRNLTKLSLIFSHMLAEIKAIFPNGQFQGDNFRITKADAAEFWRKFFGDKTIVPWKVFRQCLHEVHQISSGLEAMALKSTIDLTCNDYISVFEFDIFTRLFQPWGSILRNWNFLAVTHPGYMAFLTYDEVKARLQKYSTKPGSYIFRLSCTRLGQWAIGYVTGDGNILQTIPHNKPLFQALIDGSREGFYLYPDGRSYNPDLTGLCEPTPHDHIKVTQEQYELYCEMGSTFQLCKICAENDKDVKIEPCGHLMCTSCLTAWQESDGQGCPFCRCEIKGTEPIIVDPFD

Structure (SMILES)	IC50 [1] [nM]	fold induction at 0.3 µM [2, 7]	fold induction at 1 µM [2, 7]	fold induction at 4 µM [2, 7]	fold induction at 1 µM [3, 7]	fold induction at 8 µM [3, 7]	fold induction at 0.3 µM [4, 7]	fold induction at 1 µM [4, 7]	fold induction at 4 µM [4, 7]	fold induction at 1 µM [5, 7]	fold induction at 8 µM [5, 7]	IC50 [6] [nM]	fold induction at 0.3 µM [2, 8]	fold induction at 1 µM [2, 8]	fold induction at 1 µM [3, 9]	fold induction at 0.3 µM [4, 8]	fold induction at 1 µM [4, 8]	fold induction at 1 µM [5, 9]
Cn1cnnc1[C@H]1CC[C@H]1c1cccc(N2Cc3c(cccc3C(F)(F)F)C2=O)c1 (racemic) [Compound 283, cis-2-(3-(2-(4-Methyl-4H-1,2,4-triazol-3-yl)cyclobutyl)phenyl)-4-(trifluoromethyl)isoindolin-1-one]	≤ 1000	< 1	1.01 to 2.5	1.01 to 2.5	< 0.05	0.101 to 0.15	< 1	< 1	1.01 to 1.3	< 0.6	< 0.6	301 to 1000	–	–	–	–	–	–
C[C@@H](c1cccc(N2Cc3c(cccc3C(F)(F)F)C2=O)c1)[C@@H](O)c1nncn1C (racemic) [Compound 292, cis-2-(3-(1-Hydroxy-1-(4-methyl-4H-1,2,4-triazol-3-yl)propan-2-yl)phenyl)-4-(trifluoromethyl)isoindolin-1-one]	≤ 10000	2.51 to 5	1.01 to 2.5	1.01 to 2.5	< 0.05	< 0.05	1.01 to 1.3	< 1	1.01 to 1.3	< 0.6	< 0.6	1000 to 3000	–	–	–	–	–	–
C[C@@H](c1cccc(N2Cc3c(cccc3C(F)(F)F)C2=O)c1)[C@H](F)c1nncn1C (relative stereo) [Compound 293, trans-2-(3-(1-fluoro-1-(4-methyl-4H-1,2,4-triazol-3-yl)propan-2-yl)phenyl)-4-(trifluoromethyl)isoindolin-1-one]	≤ 500	2.51 to 5	2.51 to 5	2.51 to 5	0.101 to 0.15	> 0.201	1.01 to 1.3	1.01 to 1.3	1.01 to 1.3	0.601 to 0.8	0.801 to 1	100 to 300	–	–	–	–	–	–
CO[C@@H]1CCN(Cc2cc3c(c(C(F)(F)F)c2)CN(c2cccc(C4(Cc5nncn5C)COC4)c2)C3=O)C[C@@H]1F (relative stereo) [Example 621, 6-(((cis)-3-fluoro-4-methoxypiperidin-1-yl)methyl)-2-(3-(3-((4-methyl-4H-1,2,4-triazol-3-yl)methyl)oxetan-3-yl)phenyl)-4-(trifluoromethyl)isoindolin-1-one]	≤ 100	–	–	–	–	–	–	–	–	–	–	< 100	> 7.5	> 7.5	> 0.201	1.31 to 1.5	1.31 to 1.5	> 1
C[C@@H]1CCN(Cc2cc3c(c(C(F)(F)F)c2)CN(c2cccc(C4(Cc5nncn5C)COC4)c2)C3=O)C[C@H]1F (relative stereo) [Example 631, 6-((trans-3-fluoro-4-methylpiperidin-1-yl)methyl)-2-(3-(3-((4-methyl-4H-1,2,4-triazol-3-yl)methyl)oxetan-3-yl)phenyl)-4-(trifluoromethyl)isoindolin-1-one]	≤ 100	–	–	–	–	–	–	–	–	–	–	< 100	> 7.5	> 7.5	> 0.201	1.31 to 1.5	1.51 to 1.75	> 1
Cc1c[nH]nc1C[C@H](C)c1cccc(N2Cc3c(cccc3C(F)(F)F)C2=O)c1 (single isomer, unassigned) [Compound 270a]	≤ 1000	1.01 to 2.5	1.01 to 2.5	1.01 to 2.5	0.101 to 0.15	0.151 to 0.2	1.01 to 1.3	1.01 to 1.3	1.01 to 1.3	0.601 to 0.8	0.801 to 1	301 to 1000	–	–	–	–	–	–
CC(Sc1nncn1C)c1cccc(NC(=O)c2ccc3ccccc3n2)c1 (centres unmarked) [Compound 9, N-(3-(1-((4-Methyl-4H-1,2,4-triazol-3-yl)thio)ethyl)phenyl)quinoline-2-carboxamide]	≤ 1000	1.01 to 2.5	1.01 to 2.5	2.51 to 5	< 0.05	0.051 to 0.1	< 1	< 1	1.01 to 1.3	< 0.6	0.601 to 0.8	–	–	–	–	–	–	–
C[C@H](Sc1nncn1C)c1cccc(NC(=O)c2ccc3ccccc3n2)c1 [Compound 9a]	≤ 500	1.01 to 2.5	1.01 to 2.5	1.01 to 2.5	< 0.05	0.051 to 0.1	1.01 to 1.3	1.01 to 1.3	1.01 to 1.3	0.601 to 0.8	0.601 to 0.8	–	–	–	–	–	–	–

Reference: US20220324835A1 (Nurix Therapeutics, Inc., priority 2018, published 2022)
